# Test results: patent publication US7678812B2, “Aminotetralin-derived urea modulators of vanilloid VR1 receptor” (Janssen Pharmaceutica NV, priority 2002, dated 2010)
# Where “and” joins values, the source holds several entries; their conditions need not be identical. Equal entries are not always repeated. Where two headings read alike, the source gives them in different places.
# Tests used:
# [1] = test system: capsaicin-induced guinea pig bronchial ring contraction; assay: Isolated guinea pig bronchial rings, capsaicin-induced contraction (organ bath); conditions: capsaicin concentration-response shift; 105 at 1000 nM; ±SEM
# Description: Aminotetralin VR1 antagonists were tested for their potency to block capsaicin-induced guinea pig bronchial ring contraction in a standard in vitro organ bath assay [Tucker, 2001]. Two mm rings of bronchial tissue obtained from male guinea pigs (325 g) were suspended in normal Krebs solution between two wire hooks under an initial loading tension of 1 gram. The saline was maintained in a 5% CO2 and 95% O2 atmosphere at 37° C. in the presence of indomethacin (5 μM). A sub-maximal dose of 5-Methylfurmethide (5Mef, 1 μM) was added to each tissue to determine responsiveness using an isometric force transducer. After washout, tissues were exposed to compounds or vehicle for 30 min, treated with thiorphan (10 μM, 5% Na2CO3), and primed using KCl in increasing linear concentrations from 1 mM at 1 mM intervals until a slight increase in muscle tone was induced (˜1% of 5Mef response). […] The dose response curve was calculated as % max of the 5-Mef response and estimated pA2 were determined [Tucker, 2001]).
# hVR1 receptors [2] = molecular target: T1, hVR1 receptors (Homo sapiens, UniProt Q8NER1); assay: [3H] RTX binding assay, human VR1; design: expressed in transfected cells; host or cells: HEK293 (membrane preparation); conditions: inhibition of [3H] RTX binding, membranes of HEK293 cells transfected with human VR1
# T1 sequence (Q8NER1 whole entry): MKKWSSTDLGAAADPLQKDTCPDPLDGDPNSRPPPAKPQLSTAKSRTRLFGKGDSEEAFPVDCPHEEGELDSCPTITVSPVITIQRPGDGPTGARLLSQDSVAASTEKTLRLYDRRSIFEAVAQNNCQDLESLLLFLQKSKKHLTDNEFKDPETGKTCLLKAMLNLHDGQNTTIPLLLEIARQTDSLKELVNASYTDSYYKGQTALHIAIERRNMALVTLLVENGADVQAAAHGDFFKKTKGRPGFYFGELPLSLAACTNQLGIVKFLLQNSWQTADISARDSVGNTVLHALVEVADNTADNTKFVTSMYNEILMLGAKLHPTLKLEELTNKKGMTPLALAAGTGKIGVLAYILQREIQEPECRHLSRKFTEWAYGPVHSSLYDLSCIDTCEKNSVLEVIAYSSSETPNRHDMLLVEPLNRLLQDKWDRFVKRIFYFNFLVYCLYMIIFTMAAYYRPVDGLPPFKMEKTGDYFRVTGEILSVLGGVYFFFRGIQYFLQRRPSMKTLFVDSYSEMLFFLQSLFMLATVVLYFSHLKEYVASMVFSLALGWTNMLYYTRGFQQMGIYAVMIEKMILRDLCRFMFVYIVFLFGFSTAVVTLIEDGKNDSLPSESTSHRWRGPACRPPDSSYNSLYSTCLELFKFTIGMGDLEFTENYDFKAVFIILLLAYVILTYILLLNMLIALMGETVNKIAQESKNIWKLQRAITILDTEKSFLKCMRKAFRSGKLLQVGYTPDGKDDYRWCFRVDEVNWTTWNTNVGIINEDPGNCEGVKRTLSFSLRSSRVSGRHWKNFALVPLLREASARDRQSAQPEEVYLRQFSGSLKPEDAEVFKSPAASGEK
# Description: Compounds of the present invention were tested for their ability to inhibit the binding of [^3H] RTX to hVR1 receptors in a [^3H] RTX binding assay as previously described (Zhang, Sui-Po. Improved ligand binding assays for vanilloid receptors. PCT Int. Appl. (2002), 29 pp. CODEN: PIXXD2 WO 0233411 A1 20020425 AN 2002:315209; Grant, Elfrida R.; Dubin, Adrienne E.; Zhang, Sui-Po; Zivin, Robert A.; Zhong, Zhong Simultaneous intracellular calcium and sodium flux imaging in human vanilloid receptor 1 (VR1)-transfected human embryonic kidney cells: a method to resolve ionic dependence of VR1-mediated cell death. Journal of Pharmacology and Experimental Therapeutics (2002), 300(1), 9-17.)
# HEK293 cells were transfected with human VR1 vanilloid receptors and washed with Hank's Balanced Salt Solution, dissociated with cell dissociation buffer (Sigma), and then centrifuged at 1000×g for 5 min. Cell pellets were homogenized in cold 20 mM HEPES buffer, pH 7.4, containing 5.8 mM NaCl, 320 mM sucrose, 2 mM MgCl2, 0.75 CaCl2 and 5 mM KCl and centrifuged at 1000×g for 15 min. The resultant supernate was then centrifuged at 40000×g for 15 min. The pelleted membranes were kept in an −80° C. freezer.
# Approximately 120 μg protein/ml from membranes were incubated with indicated concentrations of [^3H] RTX in 0.5 ml of the HEPES buffer (pH 7.4) containing 0.25 mg/mL fatty acid-free bovine serum albumin at 37° C. for 60 min. The reaction mixture was then cooled to 4° C., 0.1 mg α1-acid glycoprotein added to each sample and incubated at 4° C. for 15 min. The samples were centrifuged at 18500×g for 15 min. The tip of the microcentrifuge tube containing the pellet was cut off. Bound radioactivity was quantified by scintillation counting. Non-specific binding was tested in the presence of 200 nM unlabeled RTX.
# [3] = molecular target: T2, VR1 expressed endogenously on small rat dorsal root ganglion (DRG) neurons (Rattus norvegicus, UniProt O35433); assay: Electrophysiologic functional assay using dissociated rat DRG cells (whole cell patch clamp); format: cell-based; conditions: compound concentration 1 uM; initial response to 0.3 uM capsaicin
# T2 construct: VR1 expressed endogenously on small rat dorsal root ganglion (DRG) neurons; endogenous in cells; host or cells: dissociated DRG neurons from normal rats
# T2 sequence (O35433 whole entry): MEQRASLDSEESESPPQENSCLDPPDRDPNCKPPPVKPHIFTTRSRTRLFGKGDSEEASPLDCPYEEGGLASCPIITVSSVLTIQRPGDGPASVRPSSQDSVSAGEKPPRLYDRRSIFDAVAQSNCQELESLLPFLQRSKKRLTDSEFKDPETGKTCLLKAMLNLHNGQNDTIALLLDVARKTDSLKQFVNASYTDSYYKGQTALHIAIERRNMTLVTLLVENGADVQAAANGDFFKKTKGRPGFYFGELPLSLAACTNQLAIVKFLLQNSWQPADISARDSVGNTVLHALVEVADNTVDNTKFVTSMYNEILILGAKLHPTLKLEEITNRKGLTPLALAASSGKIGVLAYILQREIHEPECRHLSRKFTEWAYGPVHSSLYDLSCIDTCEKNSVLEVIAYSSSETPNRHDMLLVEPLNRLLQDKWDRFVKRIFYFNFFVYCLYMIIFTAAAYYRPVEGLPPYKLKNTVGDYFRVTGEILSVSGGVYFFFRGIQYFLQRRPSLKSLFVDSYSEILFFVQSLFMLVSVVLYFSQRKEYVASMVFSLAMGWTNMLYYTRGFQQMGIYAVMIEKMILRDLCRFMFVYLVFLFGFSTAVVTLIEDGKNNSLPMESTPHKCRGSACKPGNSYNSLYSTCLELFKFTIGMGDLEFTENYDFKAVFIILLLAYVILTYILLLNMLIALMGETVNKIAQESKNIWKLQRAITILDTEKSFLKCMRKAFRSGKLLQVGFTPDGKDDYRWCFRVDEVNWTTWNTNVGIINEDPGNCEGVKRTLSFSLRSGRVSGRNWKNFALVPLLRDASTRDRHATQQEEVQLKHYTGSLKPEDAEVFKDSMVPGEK
# Description: Compounds 42, 95, 101, 105 and 106 were tested for their activity on VR1 expressed endogenously on small rat dorsal root ganglion (DRG) neurons. DRG neurons from normal rats were dissociated (see methods in Chaplan et al., 2003) and whole cell currents mediated by VR1 were recorded using the whole cell patch clamp technique. […] This was followed by application of 10 μM CAP in the presence of compound. […] The ability of 1 and 10 μM CAP to cause an increased current after exposure to a compound of the invention was compared to controls.
# [4] = test system: carrageenan paw-induced thermal hyperalgesia; assay: Carrageenan paw-induced thermal hyperalgesia; format: in vivo, rat; conditions: Rattus norvegicus, po
# Description: Each rat was placed on a heated surface (51° C.) in order to measure the time necessary to elicit a response, and an initial (baseline) response time to a thermal stimuli was recorded for each animal. A response is defined as any shaking, licking, or tucking of the treated paw or jumping. Animals not treated with a test compound respond in approximately 20 seconds. The maximal exposure time permitted is 60 seconds to prevent tissue damage. Rats were injected with an irritant (e.g., 1% carrageenan solution in 0.9% saline) subcutaneously into the sub-plantar tissue of the left hind paw to stimulate an acute inflammatory reaction.
# Two hours later, the response time of the animal to the thermal stimulus was evaluated and compared to the animal's baseline response time. This shorter response time was recorded as percent hyperalgesia (% H). A cut-off value for % H (usually 75%) was used during analysis to ensure that the animals were hyperalgesic. Animals were then dosed with test drug or vehicle.
# At some time(s) later (typically 45 and 90 minutes), the response time of the animal to the thermal stimulus was again evaluated. For each time point, a percent reversal of hyperalgesia (% R) was calculated using the following formula: % R=(Drug Latency−Carrageenan latency)/(Baseline latency−Carrageenan latency). ED50 values were calculated from % R obtained at several drug doses.
# Rat VR1 [5] = molecular target: T3, Rat VR1 (Rattus norvegicus, UniProt O35433); assay: [3H]-RTX binding assay using rat tissue (spinal cord); design: Rat spinal cord was homogenized twice with a Polytron; from tissue; host or cells: rat spinal cord membranes; conditions: rat spinal cord membranes
# T3 sequence (O35433 whole entry): as above
# Description: Alternatively, a binding assay using rat tissue was used. Rat spinal cord was homogenized twice with a Polytron and centrifuged at 3000 rpm for 10 min in HEPES buffer containing 20 mM HEPES, pH 7.4, NaCl 5.8 mM, sucrose 320 mM, MgCl2 2 mM, CaCl2 0.75 mM and KCl 5 mM. The supernatant was then centrifuged at 18,000 rpm for 20 min. The pellet was saved in a tube and 10 ml assay buffer was added into the tube. The pellet and buffer were mixed with a Polytron. The assay contained 120 μg/ml membrane protein and 0.3-0.6 nM [^3H]-RTX (NEN, Boston) in a total volume of 0.5 ml HEPES buffer. Following-incubation for 60 min at 37 C, the samples were cooled down on ice, and 100 mg of α-acid glycoprotein were added into the samples. After centrifugation at 13,000 rpm for 15 min, the supernatant was aspirated and the tips of tubes were cut off and placed into 6 ml vials. Data were calculated according to the equation: % inhibition=(total binding−binding)*100/(total binding−non specific binding). Ki value values were calculated using a Prism program.
# Rat VR1 [6] = molecular target: T3, Rat VR1; assay: Broadly stimulated recombinant rat VR1 functional assay (Ca2+ influx, FLIPR); format: cell-based; design: expressed in transfected cells
# Excerpt: When nociceptors are exposed to tissue damaging stimuli, VR1 receptors are activated by a plethora of stimuli. In an effort to identify potent and efficacious antagonists at human and rat VR1 that were active under conditions simulating aspects of in vivo inflammation functional assays were developed using FLIPR to determine antagonist activity against endogenous activators and stimuli likely to be present in inflammation. Cell lines were constructed that stably expressed recombinant rat VR1 (rVR1/HEK293). Cells were exposed to various stimuli at their EC80, with the exception of the low pH and DTT stimuli.
# Phoshorylation by PKC. […] Cells were challenged with 300 nM PMA (˜EC80) after 3 min in the indicated antagonist.
# Anandamide. Anandamide is a brain-derived cannabinoid ligand that acts as a near full agonist at VR1 at low μM concentrations [Smart, 2000 #507].
# Reactive oxygen species: Disturbances in the regulatory activities of free radicals may play a role in inflammation [Winrow, 1993]. Reactive oxygen species (ROS) such as H2O2 are formed in inflamed joints.
# Reducing agents: The reducing agent DTT also directly activates VR1 [Vyklicky, 2002]. Cells were challenged with 5-10 mM DTT to stimulate VR1 after 3 min incubation in compound.
# Since many of our animal models were in rat, we cloned the rat VR1 and expressed it stably in HEK293 cells.
# hVR1 receptors [7] = molecular target: T1, hVR1 receptors; assay: Broadly stimulated recombinant human VR1 functional assay (Ca2+ influx, FLIPR); format: cell-based; design: expressed in transfected cells; host or cells: HEK293
# [8] = test system: capsaicin-induced cough responses; assay: Capsaicin-induced cough (antitussive efficacy); format: in vivo, guinea pig; conditions: codeine 25 mg/kg IP at -60 min; capsaicin aerosol 15 μM; vehicle 3.0±0.5; P<0.001
# Description: The antitussive activity of intraperitoneally (IP) administered compound is assessed at a single dose level against capsaicin-induced cough responses as compared to positive and vehicle controls. Thirty-six male Dunkin-Hartley guinea pigs (295-590 g, mean=425 g) are randomly allocated to one of three groups (n=12 guinea pigs per group). […] Guinea pigs are dosed IP at —60 min with vehicle (15% Solutol in 5% dextrose solution); the positive control codeine (25 mg/kg), or test compound (20 mg/kg in 15% Solutol in 5% dextrose solution). Individual guinea pigs are placed in an exposure chamber with an airflow of 3 L/min at —10 min to acclimatize. […] The mean ±SEM number of capsaicin-induced cough responses recorded in vehicle pre-treated guinea pigs was 3.0±0.5. […] ANOVA statistical analysis was used to determine the level of significance.
# [9] = recombinant rat VR1, stimulus anandamide 10 μM, Ca2+ influx, read-out: IC50, Anandamide
# [10] = recombinant human VR1, stimulus low pH (pH 6.5), Ca2+ influx, read-out: IC50, Low pH
structure (smiles),measurement,setting,value
"O=C(Nc1cccc2cnccc12)NC1CCc2cc(F)ccc2C1Cc1ccccc1 (racemic) [Compound 38a, 1-(1-Benzyl-6-fluoro-1,2,3,4-tetrahydronaphthalene-2-yl)-3-isoquinolin-5-yl-urea]",Estimated pA2,[1],8.0 and 8.0±0.02
same,Ki,hVR1 receptors [2],1.76 nM
"O=C(Nc1cccc2c(Cl)nccc12)NC1CCc2cc(F)ccc2C1Cc1ccccc1 (single isomer, unassigned) [Compound 105]",% of the initial CAP response in presence of 1 uM CAP,[3],0% and 8%
same,ED50,"[4]; 1.5 h, p.o., at 90 min, read-out: ED50",0.394 mg/kg
same,Estimated pA2,[1],6.2 and 6.2±0.11 and 6.2 +/− 0.11
same,Ki,hVR1 receptors [2],10.8 nM
same,Ki,Rat VR1 [5],4920 nM
"COc1ccc2c(c1)CCC(NC(=O)Nc1cccc3cnccc13)C2Cc1ccccc1 (stereo not shown) [Compound 33, 1-(1-Benzyl-6-methoxy-1,2,3,4-tetrahydronaphthalene-2-yl)-3-isoquinolin-5-yl-urea]",ED50,"[4]; reversal of hyperalgesia, read-out: CgHP ED50",0.276 mg/kg
same,Estimated pA2,[1],8.0 +/− 0.02
same,"increase in intracellular Ca2+ caused by acidic solutions, anandamide, PMA at low pH and H2O2","Rat VR1 [6]; rat recombinant VR1, 3 min incubation in antagonist, dose dependent",completely abolished
same,IC50,"Rat VR1 [6]; recombinant rat VR1, PMA at low pH, Ca2+ influx, read-out: IC50, PKC phosphorylation at low pH",47 nM
same,IC50,"Rat VR1 [6]; recombinant rat VR1, stimulus 0.015% H2O2, Ca2+ influx, read-out: IC50, H2O2",33 nM
same,IC50,Rat VR1 [6]; [9],38 nM
same,IC50,"Rat VR1 [6]; recombinant rat VR1, stimulus low pH (pH 5.9), Ca2+ influx, read-out: IC50, Low pH",170 nM
same,"increase in intracellular Ca2+ caused by acidic solutions, anandamide, PMA and H2O2","hVR1 receptors [7]; human recombinant VR1, 3 min incubation in antagonist, dose dependent",completely abolished
same,IC50,"hVR1 receptors [7]; recombinant human VR1, PMA at low pH, Ca2+ influx, read-out: IC50, PKC phosphorylation at low pH",70 nM
same,IC50,"hVR1 receptors [7]; recombinant human VR1, stimulus 0.015% H2O2, Ca2+ influx, read-out: IC50, H2O2 reactive oxygen species",39 nM
same,IC50,"hVR1 receptors [7]; recombinant human VR1, stimulus anandamide 10 μM, Ca2+ influx, read-out: IC50, Anandamide",41 nM
same,IC50,hVR1 receptors [7]; [10],23 nM and 40 nM
same,Ki,hVR1 receptors [2],3.37 nM
"Cl.Cl.Cl.Cl.Cl.Cl.N.N.N.N.N.N.N.N.N.N.N.N.N.N.[O-2].[O-2].[Ru+3].[Ru+3].[Ru+4] [Ruthenium Red, ruthenium red, reference compound]",IC50,"Rat VR1 [6]; recombinant rat VR1, stimulus 300 nM PMA, Ca2+ influx, read-out: IC50, PKC phosphorylation",300 nM
same,IC50,Rat VR1 [6]; [9],1860 nM
same,IC50,"hVR1 receptors [7]; recombinant human VR1, stimulus 300 nM PMA, Ca2+ influx, read-out: IC50, PKC phosphorylation",500 nM
same,IC50,hVR1 receptors [7]; [10],500 nM
COc1ccc2c3c1O[C@H]1[C@@H](O)C=C[C@H]4[C@@H](C2)N(C)CC[C@@]341 [codeine],number of capsaicin-induced cough responses (mean ±SEM),[8],0.58±0.15 coughs
